Reference: ChEMBL document CHEMBL1156829 (Proc Natl Acad Sci U S A, 2008)

Experiments:
[1] = NOVARTIS: Cytotoxicity against human hepatocellular carcinoma cell line (Huh7); format: toxicity, cell-based, Huh-7; details: Huh7 cells (hepatocellular carcinoma cell line)
Plasmodium falciparum [2] = assay: NOVARTIS: Inhibition of Plasmodium falciparum W2 (drug-resistant) proliferation in erythrocyte-based infection assay; format: functional, organism-based; details: Plasmodium falciparum, W2; read-out: EC50
Plasmodium falciparum [3] = assay: NOVARTIS: Inhibition of Plasmodium falciparum 3D7 (drug-susceptible) proliferation in erythrocyte-based infection assay; format: functional, organism-based; details: Plasmodium falciparum, 3D7

Compound: CCN1CCN(c2cc(C)c3cc(NC(=O)c4cc(=O)c5ccccc5o4)ccc3n2)CC1
- CC50 [1]: > 10 µM
- EC50 (Plasmodium falciparum [2]): 0.386 µM
- EC50 (Plasmodium falciparum [3]): 0.498 µM

Compound: O=C1c2ccccc2-c2nnc(-c3ccccc3)cc21
- CC50 [1]: > 10 µM
- EC50 (Plasmodium falciparum [2]): 0.392 µM
- EC50 (Plasmodium falciparum [3]): 0.268 µM

Compound: CN(C)CCNc1cc(-c2ccccc2)nc2ccccc12
- CC50 [1]: 21.2 µM
- EC50 (Plasmodium falciparum [2]): 0.819 µM
- EC50 (Plasmodium falciparum [3]): 0.692 µM

Compound: O=C(Nc1cc(C(F)(F)F)cc(C(F)(F)F)c1)Nc1ccc(Cl)c(Cl)c1
- CC50 [1]: 6.57 µM
- EC50 (Plasmodium falciparum [2]): 0.927 µM
- EC50 (Plasmodium falciparum [3]): 0.814 µM

Compound: O=C(O)CSc1nc2c(ccc3nsnc32)[nH]1
- CC50 [1]: > 10 µM
- EC50 (Plasmodium falciparum [2]): > 1.44 µM
- EC50 (Plasmodium falciparum [3]): > 0.964 µM

Compound: CCN1CCN(C/C=C/c2ccccc2[N+](=O)[O-])CC1
- CC50 [1]: > 10 µM
- EC50 (Plasmodium falciparum [2]): 1.41 µM
- EC50 (Plasmodium falciparum [3]): > 1.25 µM

Compound: CC(=NNC(=S)NN)c1ccccn1
- CC50 [1]: > 10 µM
- EC50 (Plasmodium falciparum [2]): 0.386 µM
- EC50 (Plasmodium falciparum [3]): 1.37 µM

Compound: COc1ccc(Nc2nc(NN=Cc3cccc(I)c3)nc(Nc3ccc([N+](=O)[O-])cc3)n2)cc1
- CC50 [1]: > 11.7 µM
- EC50 (Plasmodium falciparum [2]): 0.454 µM
- EC50 (Plasmodium falciparum [3]): 0.305 µM

Compound: COc1cc(NC(=O)Cc2ccccc2OC)cc(OC)c1
- CC50 [1]: > 10 µM
- EC50 (Plasmodium falciparum [2]): > 0.386 µM
- EC50 (Plasmodium falciparum [3]): > 1.69 µM

Compound: Cn1nc(C(F)(F)F)c(C(=O)Nc2cccc(C(F)(F)F)c2)c1SCc1ccc(Cl)cc1
- CC50 [1]: 31.3 µM
- EC50 (Plasmodium falciparum [2]): 1.2 µM
- EC50 (Plasmodium falciparum [3]): 1.01 µM

Compound: COc1cc(CNCCCN(C)C)ccc1OCc1ccc(F)cc1Cl
- CC50 [1]: 4.16 µM
- EC50 (Plasmodium falciparum [2]): 0.159 µM
- EC50 (Plasmodium falciparum [3]): 0.092 µM

Compound: c1ccc(Nc2ccnc(Nc3ccccc3)n2)cc1
- CC50 [1]: > 49 µM
- EC50 (Plasmodium falciparum [2]): 1.93 µM
- EC50 (Plasmodium falciparum [3]): 0.804 µM

Compound: CN1C[C@@H](CSc2ccccn2)C=C2c3cccc4[nH]cc(c34)C[C@H]21
- CC50 [1]: > 10 µM
- EC50 (Plasmodium falciparum [2]): 0.393 µM
- EC50 (Plasmodium falciparum [3]): 0.226 µM

Compound: CCOC(=O)COC1=C(CCCCC2CCCCC2)C(=O)c2ccccc2C1=O
- CC50 [1]: 31 µM
- EC50 (Plasmodium falciparum [2]): 1.22 µM
- EC50 (Plasmodium falciparum [3]): 0.0581 µM

Compound: Cc1cc(S(=O)(=O)NC(Cc2ccc([N+](=O)[O-])cc2)C(=O)O)c(Cl)cc1Cl (stereo unspecified)
- CC50 [1]: > 10 µM
- EC50 (Plasmodium falciparum [2]): 0.391 µM
- EC50 (Plasmodium falciparum [3]): > 1.25 µM

Compound: CN(CCCNc1ccnc2cc(Cl)ccc12)C(=O)c1ccccc1
- CC50 [1]: > 10 µM
- EC50 (Plasmodium falciparum [2]): 0.391 µM
- EC50 (Plasmodium falciparum [3]): 0.723 µM

Compound: O=C1CN(C(=O)CCC2CCCCC2)C(c2ccccc2)c2cc(F)ccc2N1 (stereo unspecified)
- CC50 [1]: 33.2 µM
- EC50 (Plasmodium falciparum [2]): 1.29 µM
- EC50 (Plasmodium falciparum [3]): 1.07 µM

Compound: CCN(CC)C(=O)COc1ccccc1CNCc1ccccc1
- CC50 [1]: > 10 µM
- EC50 (Plasmodium falciparum [2]): 1.44 µM
- EC50 (Plasmodium falciparum [3]): > 1.25 µM

Compound: NS(=O)(=O)c1ccc(N/C=C/C(=O)c2ccc(Cl)s2)cc1
- CC50 [1]: > 8.69 µM
- EC50 (Plasmodium falciparum [2]): > 1.25 µM
- EC50 (Plasmodium falciparum [3]): 1.83 µM

Compound: CCOC(=O)c1c(Cl)nnc(-c2ccccc2)c1-c1ccccc1
- CC50 [1]: > 10 µM
- EC50 (Plasmodium falciparum [2]): > 1.44 µM
- EC50 (Plasmodium falciparum [3]): 0.797 µM

Compound: COCOc1ccc(-c2nc(-c3ccncc3)cnc2N)cc1
- CC50 [1]: > 10 µM
- EC50 (Plasmodium falciparum [2]): > 1.44 µM
- EC50 (Plasmodium falciparum [3]): 1.43 µM

Compound: COc1ccc(Nc2nc(NCc3ccco3)c3ccccc3n2)cc1
- CC50 [1]: 2.97 µM
- EC50 (Plasmodium falciparum [2]): 0.421 µM
- EC50 (Plasmodium falciparum [3]): 0.253 µM

Compound: Cc1ccccc1Cn1cc(NC(=O)c2cc(-c3cccs3)on2)cn1
- CC50 [1]: > 10 µM
- EC50 (Plasmodium falciparum [2]): 1.42 µM
- EC50 (Plasmodium falciparum [3]): > 1.25 µM

Compound: Cc1cc(S(=O)(=O)N2CCN(Cc3ccccc3)CC2)ccc1-n1cnnn1
- CC50 [1]: > 10 µM
- EC50 (Plasmodium falciparum [2]): 1.41 µM
- EC50 (Plasmodium falciparum [3]): 0.732 µM

Compound: CCCC(C(=O)NC(C)(C)C)N1C(=O)c2cc(NC(C)=O)ccc2NC(=O)[C@@H]1c1ccccc1 (stereo partly specified)
- CC50 [1]: 5.45 µM
- EC50 (Plasmodium falciparum [2]): > 0.79 µM
- EC50 (Plasmodium falciparum [3]): > 0.0656 µM

Compound: Cc1ccc(CN2CCN(Cc3ccccc3)CC2)o1
- CC50 [1]: > 8.97 µM
- EC50 (Plasmodium falciparum [2]): 1.3 µM
- EC50 (Plasmodium falciparum [3]): > 1.25 µM

Compound: O=C(CCCn1c(SCc2ccccc2F)nc2ccccc2c1=O)N1CCCC1
- CC50 [1]: > 10 µM
- EC50 (Plasmodium falciparum [2]): > 1.44 µM
- EC50 (Plasmodium falciparum [3]): 1.06 µM

Compound: CCCCCCN(C(=O)c1ccc2c(c1)OCO2)C(CC)c1nc2ccccc2c(=O)n1-c1ccccc1OC (stereo unspecified)
- CC50 [1]: > 4.51 µM
- EC50 (Plasmodium falciparum [2]): 0.647 µM
- EC50 (Plasmodium falciparum [3]): 0.862 µM

Compound: Cc1cccc(CSc2nnc(C(Cc3ccccc3)NC(=O)C3CCCCC3)n2-c2ccc(Cl)cc2Cl)c1 (stereo unspecified)
- CC50 [1]: > 10 µM
- EC50 (Plasmodium falciparum [2]): 1.43 µM
- EC50 (Plasmodium falciparum [3]): 1.24 µM

Compound: CCNC(=O)N1CCN(CCN(C/C=C/c2ccccc2OC)C(=O)CC(C)CC(C)(C)C)CC1 (stereo unspecified)
- CC50 [1]: > 10 µM
- EC50 (Plasmodium falciparum [2]): 1.43 µM
- EC50 (Plasmodium falciparum [3]): > 1.25 µM

Compound: Cc1ccccc1/C=C1/SC(=Nc2ccccc2)NC1=O
- CC50 [1]: > 10 µM
- EC50 (Plasmodium falciparum [2]): > 1.42 µM
- EC50 (Plasmodium falciparum [3]): > 0.528 µM

Compound: CCc1cccc(NS(=O)(=O)c2ccc3[nH]c(=O)c(=O)[nH]c3c2)c1
- CC50 [1]: > 10 µM
- EC50 (Plasmodium falciparum [2]): > 1.45 µM
- EC50 (Plasmodium falciparum [3]): > 1.04 µM

Compound: Cc1oc2c(c1C(=O)NCCCn1ccnc1)C(=O)c1ccccc1C2=O
- CC50 [1]: 0.27 µM
- EC50 (Plasmodium falciparum [2]): 0.0391 µM
- EC50 (Plasmodium falciparum [3]): 0.0904 µM

Compound: O=C(Nc1ccc(F)c(F)c1)c1cc2cc(C3(O)CCN(Cc4ccccc4F)CC3)ccc2o1
- CC50 [1]: 12.8 µM
- EC50 (Plasmodium falciparum [2]): 1.85 µM
- EC50 (Plasmodium falciparum [3]): 1.5 µM

Compound: Cc1ccc(C)c(Nc2nc(NCc3ccco3)c3ccccc3n2)c1
- CC50 [1]: 5.94 µM
- EC50 (Plasmodium falciparum [2]): 0.844 µM
- EC50 (Plasmodium falciparum [3]): 0.298 µM

Compound: CC(=O)N1CC(=NNC(=O)C(C)Nc2c(C)cccc2C)c2ccccc21 (stereo unspecified)
- CC50 [1]: > 10 µM
- EC50 (Plasmodium falciparum [2]): 1.42 µM
- EC50 (Plasmodium falciparum [3]): 1.96 µM

Compound: Cc1ccc(Nc2nc(NN=Cc3ccc(-c4ccc([N+](=O)[O-])cc4)o3)nc(Nc3ccccc3)n2)c(C)c1
- CC50 [1]: > 10 µM
- EC50 (Plasmodium falciparum [2]): 0.387 µM
- EC50 (Plasmodium falciparum [3]): > 0.824 µM

Compound: CC1CN(C(=O)C(Cc2c[nH]c3ccccc23)NC(=O)C(c2ccccc2)c2ccccc2)CCN1C(=O)NCc1ccccc1 (stereo unspecified)
- CC50 [1]: > 10 µM
- EC50 (Plasmodium falciparum [2]): > 0.391 µM
- EC50 (Plasmodium falciparum [3]): > 1.25 µM

Compound: CCOc1ccc(S(=O)(=O)c2cn(Cc3ccccc3C)c3ccc(OC)cc3c2=O)cc1
- CC50 [1]: > 100 µM
- EC50 (Plasmodium falciparum [2]): 3.86 µM
- EC50 (Plasmodium falciparum [3]): 6.27 µM

Compound: CCc1cc2c(cc1-c1csc(NC(=N)N)n1)C(C)(C)CCC2(C)C
- CC50 [1]: 24.6 µM
- EC50 (Plasmodium falciparum [2]): 0.961 µM
- EC50 (Plasmodium falciparum [3]): 0.733 µM

Compound: CCc1[nH]nc2c1C(Cc1ccccc1)C(C#N)=C(N)O2 (stereo unspecified)
- CC50 [1]: > 10 µM
- EC50 (Plasmodium falciparum [2]): 0.393 µM
- EC50 (Plasmodium falciparum [3]): > 1.25 µM

Compound: CC[n+]1c(C=Cc2ccc(OC)cc2)ccc2ccccc21
- CC50 [1]: 10.3 µM
- EC50 (Plasmodium falciparum [2]): 1.48 µM
- EC50 (Plasmodium falciparum [3]): 0.69 µM

Compound: C[n+]1c(/C=C/c2ccc(Cl)c(Cl)c2)ccc2ccccc21
- CC50 [1]: > 10 µM
- EC50 (Plasmodium falciparum [2]): 0.39 µM
- EC50 (Plasmodium falciparum [3]): 0.295 µM

Compound: O=C(NCCc1ccc(Cl)cc1)C1CCCN(c2nnc(N3CCCC3=O)s2)C1 (stereo unspecified)
- CC50 [1]: > 100 µM
- EC50 (Plasmodium falciparum [2]): 3.89 µM
- EC50 (Plasmodium falciparum [3]): > 12.5 µM

Compound: Oc1ccc(-c2ccc(F)cc2)cc1CNCCCn1ccnc1
- CC50 [1]: > 10 µM
- EC50 (Plasmodium falciparum [2]): 1.43 µM
- EC50 (Plasmodium falciparum [3]): 1.06 µM

Compound: OCc1nc2ccccc2n1Cc1ccccc1F
- CC50 [1]: > 10 µM
- EC50 (Plasmodium falciparum [2]): 1.45 µM
- EC50 (Plasmodium falciparum [3]): > 1.64 µM

Compound: CCCCCN(C(=O)c1ccc(Br)cc1)C(CC)c1nc2ccccc2c(=O)n1-c1ccccc1OC (stereo unspecified)
- CC50 [1]: > 4.4 µM
- EC50 (Plasmodium falciparum [2]): 0.633 µM
- EC50 (Plasmodium falciparum [3]): 1.02 µM

Compound: c1ccc(-c2nc(Nc3ccncc3)cc(-c3cccnc3)n2)cc1
- CC50 [1]: > 10 µM
- EC50 (Plasmodium falciparum [2]): 1.44 µM
- EC50 (Plasmodium falciparum [3]): 0.884 µM

Compound: N#CC(=Cc1ccccc1OCc1ccc(Cl)cc1Cl)c1nc2ccccc2[nH]1
- CC50 [1]: 5.05 µM
- EC50 (Plasmodium falciparum [2]): 0.717 µM
- EC50 (Plasmodium falciparum [3]): 1.13 µM

Compound: COCCCNC(=O)c1c(C)nc2scc(C)n12
- CC50 [1]: > 10 µM
- EC50 (Plasmodium falciparum [2]): > 1.45 µM
- EC50 (Plasmodium falciparum [3]): > 1.08 µM

Compound: CCCNC(=O)c1ccc(OC2CCN(CC(c3ccccc3)c3ccccc3)CC2)c(OC)c1
- CC50 [1]: > 10 µM
- EC50 (Plasmodium falciparum [2]): 0.392 µM
- EC50 (Plasmodium falciparum [3]): 0.614 µM

Compound: CC(C)(C)c1ccc(C2CC3=Nc4ccccc4N(C(=O)c4ccccc4Cl)C(c4ccc(F)cc4)C3=C(O)C2)cc1 (stereo unspecified)
- CC50 [1]: > 100 µM
- EC50 (Plasmodium falciparum [2]): 3.94 µM
- EC50 (Plasmodium falciparum [3]): 2.63 µM
